{"source": "patent US20210254101A1", "about": "“METHODS FOR TREATING SPINAL CORD INJURY” (THE CHILDREN'S MEDICAL CENTER CORPORATION, priority 2018, published 2021)", "key": {"neuropathic pain": {"tested_on": "neuropathic pain", "details": "animal models; Gagnon et al., 2013; Ferrini et al., 2017; Knabl et al., 2008; cited from earlier work"}, "c-Fos": {"tested_on": "c-Fos", "experiment": "c-Fos immunoreactivity in spinal cord segments between T7 and T10 after 1 hour walking", "assay_type": "in vivo, mouse", "details": "chronic treatment", "from_the_text": "In mature neurons, GABA and glycine are inhibitory because they open chloride channels, which allow chloride ion influx leading to hyperpolarization. In contrast, during development, the elevated intracellular chloride levels render GABAA- and glycine-mediated currents depolarizing and generally excitatory. During early postnatal life, KCC2 upregulation in postnatal neurons is crucial for reducing intracellular chloride concentrations, transforming excitation into inhibition (Ben-Ari et al., 2012; Kaila et al., 2014). Thus, injury-induced KCC2 down-regulation (Boulenguez et al., 2010; Cote et al., 2014) would be expected to restore an immature state in which GABA and glycine receptors can depolarize neurons. In this scenario, KCC2 activation in spinal inhibitory neurons would transform local circuits in the relay zone towards a more physiological state, which is more receptive to descending inputs. To examine this, c-Fos immunoreactivity was used as a proxy of neuronal activity in the spinal cord segments between T7 and T10 at 8 weeks after injury, and after walking on a treadmill for 1 hour. In each group, the majority of c-Fos-positive cells in these spinal segments were also positively stained with NeuN, a neuronal marker (FIG. 11A, 11B). In injured mice without treatment, the c-Fos-positive neurons were concentrated in the dorsal horn of the spinal cord (FIG. 5A-5C), perhaps reflecting hypersensitivity to peripheral sensory inputs in these injured mice. […] This KCC2-transformed distribution pattern is similar to what was detected in intact mice, in response to walking (FIG. 5A-5C).\nImmunohistochemistry and Imaging. The paraformaldehyde (PFA) fixed tissues were cryo-protected with 30% sucrose and processed using cryostat (section thickness 40 μm for spinal cord). Sections were treated with a blocking solution containing 10% normal donkey serum with 0.5% Triton-100 for 2 hours at room temperature before staining. The primary antibodies (4 □, overnight) used were: rabbit anti-GFAP [DAKO (Z0334), 1:600]; rabbit anti-5-HT [Immunostar (20080), 1:5,000]; chicken anti-GFP [Abcam (ab13970), 1:400]; rabbit anti-RFP [Abcam (ab34771), 1:400]; rabbit anti-PKCγ [Santa Cruz (sc211), 1:100]; rat anti-HA [Sigma (11867423001), 1:200]; rabbit anti-c-Fos [Cell signaling (2250s), 1:100]; and mouse anti-NeuN [Millipore (MAB377), 1:400]. Secondary antibodies (room temperature, 2 h) included: Alexa Fluor 488-conjugated donkey anti chicken and rabbit; and Alexa Fluor 594-conjugated donkey anti rabbit (all from Invitrogen). c-Fos immunoreactivity of spinal neurons was determined as previously described (Courtine et al., 2009), after 1-hour of continuous quadrupedal free walking (intact), stepping (CLP290 or AAV-KCC2 treated mice) or dragging (vehicle or AAV-GFP treated mice). The mice were returned to their cages, and were then anesthetized and sacrificed by intracardial perfusion of 4% PFA (wt/vol) in phosphate buffered saline (PBS) about 2 hours later."}, "[1]": {"tested_on": "mice with staggered lesions", "experiment": "Basso Mouse Scale (BMS) open field locomotion after staggered T7/T10 lateral hemisections", "assay_type": "in vivo", "details": "for stepping ability / functional recovery (BMS), chronic compound treatment: daily i.p. treatment from 1 week after injury, BMS about 24 h after previous dose, FIG. 1E, 7A", "procedure": "A staggered lesion paradigm was optimized in which two lateral hemisections were performed at the thoracic (T) 7 and T10 levels simultaneously (FIGS. 1A and 1B), similar to the model previously described (Courtine 2008; van den Brand, 2012). The T10 lesion is a lateral hemisection that ends at the spinal cord midline, while the T7 lesion, contralateral to the T10 lesion, extends slightly beyond the midline (FIG. 1A). With this double hemisection procedure, all descending axons passing T10 are severed, leaving only those crossing the midline between T7 and T10 intact (FIG. 1C). Indeed, by immunohistochemistry with anti-5-HT antibodies, which label serotonergic axons, descending serotonergic axons could be detected in the spinal cord segments between the lesions, but not in the lumbar spinal cord (FIG. 1C). Thus, a relay zone remains between and around the lesions (T7 and T10) where descending axons terminate, and where some propriospinal neurons maintain their connections with lumbar spinal neurons (see herein below).\nThis double hemisection SCI model was used to seek small molecule compounds that could reactivate the spared, but dormant, spinal connections by monitoring hindlimb motor performance during over-ground locomotion. To this end, daily compound treatment was started 1 week after injury and then monitored the BMS scores approximately 24 hours after the previous day's compound treatment on a weekly basis (FIG. 1D). Behavioral outcomes observed at these time points likely reflect sustained effects of the treatment, which are more clinically relevant.\nSurgical Procedures. The procedure of T7 and T10 double lateral hemisection was similar to that described elsewhere (Courtine et al., 2008; van den Brand et al., 2012). Briefly, a midline incision was made over the thoracic vertebrae, followed by a T7-10 laminectomy. For the T7 right side over-hemisection, a scalpel and micro-scissors were carefully used to interrupt the bilateral dorsal column at T7, and ensured no sparing of ventral pathways on the contralateral side (FIG. 1A). For the T10 left hemisection, a scalpel and micro-scissors were carefully used to interrupt only the left side of the spinal cord until the midline. The muscle layers were then sutured, and the skin was secured with wound clips. All animals received post hoc histological analysis, and those with spared 5HT axons at the lumbar spinal cord (L2-5) were excluded for behavioral analysis (FIG. 7).\n(§1) Behavioral Experiments. Motor function was evaluated with a locomotor open field rating scale on the Basso Mouse Scale (BMS). For transient pharmacological treatments, ten to fifteen minutes (van den Brand et al., 2012) prior to behavioral tests (grounding walking, all of which were performed individually), mice received systematic administration (i.p.) of the neural modulators listed above. It is important to note that with a single intraperitoneal injection, plasma CNO levels peak at 15 min and become very low by 2 h after injection (Guettier et al., 2009). For chronic pharmacological treatments, 24 hours prior to behavioral tests, mice received systematic administration of the compounds listed above. All behavioral tests were completed within 1-3 hours. For detailed hindlimb kinematic analysis, mice from different groups were placed in the MotoRater (TSE Systems, (Zorner et al., 2010)), and all kinematic analysis was performed based on data collected by the MotoRater."}, "[2]": {"tested_on": "mice with a complete T8 spinal cord transection", "experiment": "BMS open field locomotion after complete T8 spinal cord transection", "assay_type": "in vivo, mouse", "details": "T8 complete transection, FIG. 7F", "from_the_text": "CLP290's effects could result from reactivating the spared dormant descending connections in the spinal cord after SCI. However, it could also act directly on the lumbar spinal cord, independently of descending inputs. […] Therefore, different from this transient effector that acts directly on the lumbar spinal cord, the effects of CLP290 on functional improvement are dependent on spared connections.\nThe procedure of T8 full transection was similar to that described elsewhere (Courtine et al., 2009). Briefly, a midline incision was made over the thoracic vertebrae, followed by a T8 laminectomy. The complete T8 transection was then performed carefully using both a scalpel and micro-scissors. The muscle layers were then sutured and the skin was secured with wound clips.\nas §1"}, "[3]": {"details": "Guettier et al., 2009, cited from earlier work"}, "[4]": {"details": "T8/9, 8 weeks after injury, FIG. 5A-5C"}}, "data": [{"smiles": "Cn1ncnc1COc1nn2c(-c3cc(F)ccc3F)nnc2cc1C(C)(C)C", "note": "[L838,417]", "values": [{"measurement": "effect on neuropathic pain", "setting": "neuropathic pain", "result": "reduce neuropathic pain"}, {"measurement": "c-Fos-positive neurons in the dorsal horn (laminae I-V)", "setting": "c-Fos; [4]", "result": "reduced c-Fos-positive neurons in dorsal horn"}, {"measurement": "c-Fos-positive neurons in the intermediate/ventral spinal cord", "setting": "c-Fos; [4]", "result": "without increasing those in intermediate zones and ventral region"}, {"measurement": "neuronal activation levels across spinal cord regions", "setting": "c-Fos; staggered injured mice", "result": "reduced neuronal activation levels in all spinal cord regions"}, {"measurement": "stepping ability / functional recovery (BMS), chronic compound treatment", "setting": "[1]", "result": "failed to promote functional motor recovery"}]}, {"smiles": "c1ccc2nc(N3CCNCC3)ccc2c1", "note": "[quipazine]", "values": [{"measurement": "BMS improvement measured acutely after compound administration", "setting": "[1]; staggered lesion, 8 weeks after SCI, FIG. 7B", "result": "rapid, but transient, BMS improvement"}, {"measurement": "duration of acute BMS improvement / locomotion after administration", "setting": "[1]; staggered lesion, FIG. 7B", "result": "less than 2 hours"}, {"measurement": "start of acute BMS improvement after administration", "setting": "[1]; staggered lesion, FIG. 7B", "result": 10, "unit": "min"}, {"measurement": "BMS improvement measured acutely after compound administration", "setting": "[2]; 8 weeks, no chronic treatment", "result": "rapid, but transient, BMS improvement"}, {"measurement": "duration of acute BMS improvement / locomotion after administration", "setting": "[2]", "result": "less than 2 hours"}, {"measurement": "start of acute BMS improvement after administration", "setting": "[2]", "result": 10, "unit": "min"}]}, {"smiles": "CCCCNc1cc(C(=O)O)cc(S(N)(=O)=O)c1Oc1ccccc1", "note": "[Bumetanide]", "values": [{"measurement": "stepping ability / functional recovery (BMS), chronic compound treatment", "setting": "[1]", "result": "some effects, but without statistical significance"}]}, {"smiles": "C[N+]1([O-])CCN(C2=Nc3cc(Cl)ccc3Nc3ccccc32)CC1", "note": "[CNO, Clozapine N-oxide]", "values": [{"measurement": "plasma CNO levels", "setting": "[3]; by 2 h after single intraperitoneal injection", "result": "very low"}, {"measurement": "time of peak plasma CNO levels", "setting": "[3]; single intraperitoneal injection", "result": 15, "unit": "min"}]}]}
